Results published in patent US8198446B2, “Crystalline micropowder particles” (Toray Industries, Inc., priority 2007, dated 2012).
Several values for one entry are separate records, joined by “and”; a condition that tells them apart may be missing. Identical values can stand only once.

Tests used:
Type in all cases: physicochemical
[1] = Measurement of particle diameter distribution (laser diffraction, dry measurement, Mastersizer 2000); details: for Particle Diameter Distribution D50 / Particle Diameter Distribution D90: dry measurement, volume basis
Procedure: In the present invention, D50 and D90 are indices for defining particle diameter distribution. Particle diameter distribution is usually called particle size distribution. Particles are divided into groups along with their size with appropriate intervals, and weight (volume) or particle number of the particles belonging to each group is measured to obtain the particle number (frequency) of each group. Taking the particle number (frequency) along the ordinate and taking the particle diameter along the abscissa, a particle diameter distribution is shown as a histogram, frequency curve, cumulative curve or the like. In the present invention, frequency was calculated based on volume. In the particle diameter distribution obtained in such a manner, D50 means the particle diameter at the point where the volume which is cumulatively measured from smaller particles reaches 50%, that is, the point where the cumulative frequency of the volume distribution reaches 50%. D90 means the particle diameter at the point where the volume which is cumulatively measured from smaller particles reaches 90%, that is, the point where the cumulative frequency of the volume distribution reaches 90%. Cumulative frequency (%) of particles which have a smaller diameter than a specified particle diameter can also be calculated from such a distribution chart.
Measurement of the particle diameter distribution of the crystalline finely-ground particles according to the present invention may be carried out with a commercially available apparatus using laser diffraction/scattering based on Mie Theory. For example, the measurement is carried out using a commercially available apparatus such as Malvern (registered trademark) Mastersizer Laser Diffraction Analyzer (Malvern Instruments Ltd). This analyzer irradiates He—Ne laser beam and blue light-emitting diode on particles to obtain a light scattering pattern which occurs on a detector by the irradiation, and then analyzes the light scattering pattern according to Mie Theory to determine the particle diameter distribution. […] An example of the measurement condition is as follows, which was used in Evaluation 1 of the present invention.
• Apparatus: Laser diffraction-based particle size distribution analyzer Mastersizer 2000 (Malvern) • Dry measurement unit: Scircco 2000 • Refractive Index of Samples: Real part; 1.810, Imaginary part; 0 • Time for Sample Measurement: 1 second • Time for Background Measurement: 5 seconds • Pressure: 2.0 bar • Feed Rate: 40% • Analysis Model: Single narrow mode • Calculation Sensitivity Enhanced • Particle Shape Irregular • Analysis Range: 0.020 to 2000 μm • Basis of Size Distribution Measurement: Volume
The particle diameter distribution of the subject compound was measured by dry measurement using a particle size distribution analyzer (Mastersizer 2000, manufactured by Malvern). D50 and D90 were calculated as an index of the particle diameter distribution.

[2] = Check of crystalline state and measurement of degree of crystallinity by powder X-ray diffraction; details: for Degree of Crystallinity: powder X-ray diffraction, Xc=(Sc/(Sc+Sa))×100
Procedure: The degree of crystallinity of the crystalline finely-ground particles according to the present invention is calculated from the integrated intensity ratio of crystalline peaks and amorphous halo which are extracted from an X-ray diffraction pattern obtained by powder X-ray diffraction measurement.
The powder X-ray diffraction measurement may be carried out by using, for example, a powder X-ray diffractometer (2200/RINT Ultima+PC) manufactured by Rigaku as described in Evaluation 2 of the present invention. In preparation of a measurement sample, 100 mg of a sample material is filled in a glass sample plate (0.2 mm depth) in non-destructive condition, and the surface of the sample material is leveled out using a glass plate to obtain a measurement sample. An example of the measurement condition is as follows, which was used in the present invention.
The degree of crystallinity may be calculated by a known analysis method using diffraction patterns of a sample material and sample plate alone (without a sample material) and a difference pattern thereof. For example, using a powder X-ray diffraction pattern analysis software JADE5.0 produced by MDI, which is a commercially available analysis software, a degree of crystallinity may be calculated as follows.
• (1) A difference pattern of the diffraction patterns of a sample material and sample plate alone is smoothed (Savitzky-Goray filter: 19 points). • (2) For a display area of the difference pattern, the x-axis: diffraction angle (2θ) is set between 2 deg and 90 deg, and the y-axis: diffraction intensity (Counts) is set between 0 and 500. • (3) Points are set at diffraction angles of […], 65 and 90 deg, respectively, and a straight line parallel to the x-axis is drawn such that the line is contact with the difference diffraction pattern at a range of 65 deg to 90 deg. The area below the line is determined as a background. • (4) The background is subtracted. • (5) An integrated intensity at a range of 4 deg to 60 deg is calculated (which corresponds to a sum of the integrated intensity of crystalline peaks and an amorphous halo: Sc+Sa) • (6) Points are set at diffraction angles of 2, 7, 18, 26, 30, 35, 59, 65 and 90 deg, respectively. At 2, 65 and 90 deg, the diffraction intensity is set as 0, and at 7, 18, 26, 30, 35 and 59 deg, an approximation by a cubic spline is made such that the approximation formula is in contact with the difference pattern obtained after the subtraction of the background, thereby estimating an amorphous halo. • (7) The amorphous halo is subtracted. • (8) The integrated intensity at a range of 4 deg to 60 deg is calculated (which corresponds to the integrated intensity of the crystalline peaks: Sc). • (9) A degree of crystallinity is calculated according to the following equation. Xc=(Sc/(Sc+Sa))×100 Equation • Xc: Degree of crystallinity (%) • Sc: Integrated intensity of the crystalline peaks • Sa: Integrated intensity of the amorphous halo
For check of the crystalline state and measurement of the degree of crystallinity, powder X-ray diffraction measurement was carried out using a powder X-ray diffraction analyzer (2200/RINT Ultima+PC) manufactured by Rigaku.

[3] = Storage stability (1): content of pharmaceutical active substance by HPLC, 60° C./75% RH opened
Procedure: For comparison of storage stability, the ground pharmaceutical active substance of Example 6 (crystallinity 88%) which was ground with a jet mill pulverizer Co-jet (α-mkII: manufactured by Seishin Enterprise) and that of Comparative Example 7 (crystallinity 73%) which was ground with a mortar and pestle were left under the storage condition of 60° C./75% RH opened, and the content of the pharmaceutical active substance was analyzed by HPLC 0.5 and 2 months after the start of the storage (Table 6).

[4] = Storage stability (2): total amount of related substances by HPLC, 60° C./75% RH opened
Procedure: For comparison of storage stability, the ground pharmaceutical active substance of Comparative Example 4 (grinding for 3 min), Comparative Example 5 (grinding for 6 min) and Comparative Example 6 (grinding for 7 min), all of which were ground with Table Ball Mill (model V-2M: manufactured by Irie Shokai), were left under the storage condition of 60° C./75% RH opened, and the total amount of related substances was analyzed by HPLC 0.5 and 2 months after the start of the storage (Table 7).

[5] = 60° C./75% RH opened, 0.5-Month Later
[6] = 60° C./75% RH opened, 2-Month Later

| SMILES | Particle Diameter Distribution D50 [1] [μm] | Particle Diameter Distribution D90 [1] | Degree of Crystallinity [2] [%] | other results |
| --- | --- | --- | --- | --- |
| O=C1c2ccccc2C(=O)N1[C@@H]1CC[C@@]2(O)[C@H]3Cc4ccc(O)c5c4[C@@]2(CCN3CC2CC2)[C@H]1O5 [Example 7, N-(17-cyclopropylmethyl-4,5α-epoxy-3,14-dihydroxy-morphinan-6β-yl)-phthalimide] | 5.67 | 16.1 μm | 87 | – |
| O=C1c2ccccc2C(=O)N1[C@@H]1CC[C@@]2(O)[C@H]3Cc4ccc(O)c5c4[C@@]2(CCN3CC2CC2)[C@H]1O5 [Comparative Example 3, N-(17-cyclopropylmethyl-4,5α-epoxy-3,14-dihydroxy-morphinan-6β-yl)-phthalimide] | – | – | – | crystalline state by powder X-ray diffraction ([2]; Eight hours after grinding with ball mill): converted into an amorphous material |
| O=C1c2ccccc2C(=O)N1[C@@H]1CC[C@@]2(O)[C@H]3Cc4ccc(O)c5c4[C@@]2(CCN3CC2CC2)[C@H]1O5 [Example 1, N-(17-cyclopropylmethyl-4,5α-epoxy-3,14-dihydroxy-morphinan-6β-yl)-phthalimide] | 4.25 | 9.14 μm | 89 | – |
| O=C1c2ccccc2C(=O)N1[C@@H]1CC[C@@]2(O)[C@H]3Cc4ccc(O)c5c4[C@@]2(CCN3CC2CC2)[C@H]1O5 [Comparative Example 7, N-(17-cyclopropylmethyl-4,5α-epoxy-3,14-dihydroxy-morphinan-6β-yl)-phthalimide] | – | – | – | Content of Pharmaceutical Active Substance by HPLC [3, 5]: 98.85%; Degree of Decrease Based on Start of Storage [3, 5]: 1.64; Content of Pharmaceutical Active Substance by HPLC [3, 6]: 98.51%; Degree of Decrease Based on Start of Storage [3, 6]: 2.13; Content of Pharmaceutical Active Substance by HPLC ([3]; At Start of Storage): 99.30% |
| O=C1c2ccccc2C(=O)N1[C@@H]1CC[C@@]2(O)[C@H]3Cc4ccc(O)c5c4[C@@]2(CCN3CC2CC2)[C@H]1O5 [Comparative Example 6, N-(17-cyclopropylmethyl-4,5α-epoxy-3,14-dihydroxy-morphinan-6β-yl)-phthalimide] | 23.0 | 436 μm | 61 | Total Amount of Related Substances [4, 5]: 0.67%; Total Amount of Related Substances [4, 6]: 1.27%; Total Amount of Related Substances ([4]; At Start of Storage): 0.24% |
| O=C1c2ccccc2C(=O)N1[C@@H]1CC[C@@]2(O)[C@H]3Cc4ccc(O)c5c4[C@@]2(CCN3CC2CC2)[C@H]1O5 [Example 4, N-(17-cyclopropylmethyl-4,5α-epoxy-3,14-dihydroxy-morphinan-6β-yl)-phthalimide] | 14.6 | 47.8 μm | 96 | Cumulative Frequency of Volume Distribution Which Is Occupied by Particles with Volume-Based Particle Diameter 15 (μm) or Less [1]: 51.7% |
| O=C1c2ccccc2C(=O)N1[C@@H]1CC[C@@]2(O)[C@H]3Cc4ccc(O)c5c4[C@@]2(CCN3CC2CC2)[C@H]1O5 [Comparative Example 4, N-(17-cyclopropylmethyl-4,5α-epoxy-3,14-dihydroxy-morphinan-6β-yl)-phthalimide] | 17.1 | 168 μm | 82 | Total Amount of Related Substances [4, 5]: 0.38%; Total Amount of Related Substances ([4]; At Start of Storage): 0.23% |
| O=C1c2ccccc2C(=O)N1[C@@H]1CC[C@@]2(O)[C@H]3Cc4ccc(O)c5c4[C@@]2(CCN3CC2CC2)[C@H]1O5 [Example 5, N-(17-cyclopropylmethyl-4,5α-epoxy-3,14-dihydroxy-morphinan-6β-yl)-phthalimide] | 7.83 | 16.0 μm | 90 | – |
| O=C1c2ccccc2C(=O)N1[C@@H]1CC[C@@]2(O)[C@H]3Cc4ccc(O)c5c4[C@@]2(CCN3CC2CC2)[C@H]1O5 [Example 3, N-(17-cyclopropylmethyl-4,5α-epoxy-3,14-dihydroxy-morphinan-6β-yl)-phthalimide] | 9.89 | 29.4 μm and 28.4 μm | 94 | Cumulative Frequency of Volume Distribution Which Is Occupied by Particles with Volume-Based Particle Diameter 15 (μm) or Less [1]: 70.8% |
| O=C1c2ccccc2C(=O)N1[C@@H]1CC[C@@]2(O)[C@H]3Cc4ccc(O)c5c4[C@@]2(CCN3CC2CC2)[C@H]1O5 [Example 8, N-(17-cyclopropylmethyl-4,5α-epoxy-3,14-dihydroxy-morphinan-6β-yl)-phthalimide] | 11.8 | 35.3 μm | 92 | – |
| O=C1c2ccccc2C(=O)N1[C@@H]1CC[C@@]2(O)[C@H]3Cc4ccc(O)c5c4[C@@]2(CCN3CC2CC2)[C@H]1O5 [Example 6, N-(17-cyclopropylmethyl-4,5α-epoxy-3,14-dihydroxy-morphinan-6β-yl)-phthalimide] | 5.13 | 11.2 μm | – | Content of Pharmaceutical Active Substance by HPLC [3, 5]: 99.15%; Degree of Decrease Based on Start of Storage [3, 5]: 1.39; Content of Pharmaceutical Active Substance by HPLC [3, 6]: 99.09%; Degree of Decrease Based on Start of Storage [3, 6]: 1.49; Content of Pharmaceutical Active Substance by HPLC ([3]; At Start of Storage): 99.39% |
| O=C1c2ccccc2C(=O)N1[C@@H]1CC[C@@]2(O)[C@H]3Cc4ccc(O)c5c4[C@@]2(CCN3CC2CC2)[C@H]1O5 [Example 9, N-(17-cyclopropylmethyl-4,5α-epoxy-3,14-dihydroxy-morphinan-6β-yl)-phthalimide] | 11.5 | 30.9 μm | 89 | – |
| O=C1c2ccccc2C(=O)N1[C@@H]1CC[C@@]2(O)[C@H]3Cc4ccc(O)c5c4[C@@]2(CCN3CC2CC2)[C@H]1O5 [Comparative Example 1, N-(17-cyclopropylmethyl-4,5α-epoxy-3,14-dihydroxy-morphinan-6β-yl)-phthalimide] | 32.4 | 110 μm | 97 | Cumulative Frequency of Volume Distribution Which Is Occupied by Particles with Volume-Based Particle Diameter 15 (μm) or Less [1]: 23.3% |
